The values below come from patent US20100279976A1, “USE OF ARTEMISININ AND ITS DERIVATIVES IN CANCER THERAPY” (SHANGHAI INSTITUTES FOR BIOLOGICAL SCIENCES, CAS, priority 2009, published 2010).

The test system of assay [1] is OVCAR-3 xenograft tumors. Put plainly: OVCAR-3 xenograft model in nude mice. The format is in vivo. Particulars: 5 days/week. Here is the method: Four to six week old female athymic nude mice (BALB/c, nu/nu) may be purchased from Shanghai Experimental Animal Center (Shanghai, China). Animal studies are approved by the Institute for Nutritional Sciences. The tumor xenograft model may be established as follows. Briefly, A2780 and OVCAR-3 cells may be harvested and re-suspended in serum-free RPMI 1640 medium containing 20% (v/v) Matrigel (BD Biosciences, Bedford, Mass., USA). Aliquots of cells (˜5×10^6 cells/0.2 ml) may be injected subcutaneously into the left inguinal area of the mice. The tumor growth and body weight of the mice may be monitored every other day. Tumor mass may be determined. Mice bearing palpable tumors (˜70 mg) may be randomly divided into treatment and control groups n=5 mice/group). CBP may be dissolved in saline, and DHA may be dissolved in cremophor EL:ethanol:saline (5:5:90, v/v/v). DHA may be administered via i.p. injection at doses of 10 and 25 mg/kg/5 days/week for 3 weeks) alone or combined with CBP (at a single dose of 120 mg/kg, once on day 0). The control group receives saline only. Mice may be killed on day 18. Tumors may be carefully excised, trimmed of extraneous fat or connective tissue, and homogenized in RIPA buffer (100 mg tumor tissue/1 ml RIPA) and prepared for immunoblotting analysis as described above.

The subject of assay [2] is OVCAR-3 cells. Put plainly: Annexin V-FITC apoptosis assay, OVCAR-3. The format is cell-based, human. To be noted: for increase in apoptosis versus control: 24 hrs. Here is the method:
ART- and DHA-induced apoptosis alone or in combination with gemcitabine in HepG2 and Hep3B cells or in combination with carboplatin in ovarian cancer cells may be determined by flow cytometry using the Annexin V-FITC Apoptosis Detection kit following the manufacturer's instructions. […] The cells may then be harvested, washed in PBS, and incubated with Annexin V and propidium iodide for staining in binding buffer at room temperature for 10 min in the dark. The stained cells may be analyzed using the FACSAria instrument.

Assay [3] concerns four hepatoma cell lines (HepG2, Hep3B, Huh-7, BEL-7404). Put plainly: MTT assay, mean over four hepatoma cell lines. The format is cell-based. To be noted: Homo sapiens, mean of HepG2, Hep3B, read-out: overall mean IC50 in the four hepatoma cell lines. As to the method: (§1) The effects of ART derivatives on the viability of the aforementioned cells may be determined using the MTT assay. Briefly, 2,000 cells per well were plated in triplicate in 96-well plates. After a 24-h incubation, the cells may be treated with varying concentrations of ART derivatives (0, 1, 5, 10, 25, 50, and 100 μmol/L) for 48 h. The MTT assay may be performed according to the manufacture's instruction and the resultant formazan crystals may be dissolved in DMSO (100 μL). The absorbance may be then recorded at 540 nm. The effects of ART derivatives on cell viability may be assessed by comparing the percent cell viability of the treated cells with the vehicle (DMSO)-treated control cells, which may be arbitrarily assigned at 100% viability. The experiment may be repeated thrice under the same conditions.
A general note: Tetrazolium assays rely on reduction of a dye to a coloured formazan, in cell work by metabolically active cells.

Assay [4] relates to A2780 ovarian carcinoma cells. Put plainly: MTT cell viability assay, A2780. The format is cell-based. To be noted: Homo sapiens, A2780, 48 hrs.
From the text: Human ovarian IOSE144 (immortalized non-tumorigenic human ovarian surface epithelial cells) and ovarian carcinoma (A2780 and OVCAR-3) cells that may be obtained from the American Type Culture Collection (ATCC, Manassas, Va.) are gifts from Dr. Jing Fang (Institute for Nutritional Sciences, Shanghai, China). All cells may be cultured according to the ATCC instructions. The compounds (ARS, ART, ARM and DHA) may be dissolved in DMSO (<0.1%, final concentration).
as §1

Assay [5] deals with Huh-7 hepatoma cells (p53 mutant). Kind of assay: MTT cell viability assay, Huh-7. The format is cell-based. Particulars: Homo sapiens, Huh-7 (p53 mutant), 48 h. Here is the method:
as §1

For assay [6], the system named is HepG2 hepatoma cells (p53 wild-type). Kind of assay: MTT cell viability assay, HepG2. The format is cell-based. To be noted: Homo sapiens, 48 h. As to the method: as §1
In assay [7] the test system is ovarian cancer cells. Kind of assay: MTT cell viability assay, ovarian cancer cells (line not specified). Particulars: Homo sapiens, 48 hrs, read-out: inhibition of viability. The format is cell-based. As to the method: as §1
In assay [8] the test system is 7702 normal human liver cells. Put plainly: MTT cell viability assay, normal liver cells. The format is cell-based. To be noted: 7702 cells, 48 h; for IC20: read-out: IC20 (concentration that reduces growth by 20%). As to the method:
as §1

Assay [9] relates to BEL-7404 hepatoma cells (p53 mutant). Kind of assay: MTT cell viability assay, BEL-7404. To be noted: Homo sapiens, BEL-7404 (p53 mutant), 48 h. The format is cell-based. Here is the method: as §1
For assay [10], the system named is HepG2 cells. Kind of assay: Western blot of apoptosis-related proteins. The format is cell-based, human. To be noted: HepG2, 48 h. Here is the method: Whole-cell lysates may be generated with radioimmunoprecipitation assay lysis buffer, and after centrifugation, the supernatant fraction may be collected for immunoblotting. Proteins may be resolved by SDS-PAGE and transferred onto a nitrocellulose membrane. After blocking with 5% nonfat milk in blocking buffer [20 mmol/L TBS (pH 7.5) containing 0.1% Tween 20], the membrane may be incubated with the desired primary antibody for 2 h at room temperature and then incubated with appropriate peroxidase conjugated secondary antibody. The immunoreactive bands may be visualized using the ECL Plus Western Blotting Detection System. The level of ([…] for each sample may be used as loading control. Tumor tissues may be collected at the termination of the experiment and homogenized using a homogenizer in ice-cold lysis buffer. Supernatants may be collected and used to examine the expression of different proteins by Western blot analysis.
For orientation: A western blot detects proteins with antibodies after separation by electrophoresis.

Take `C[C@H]1[C@@H](O)O[C@@H]2O[C@@]3(C)CC[C@H]4[C@H](C)CC[C@@H]1[C@@]24OO3` [DHA, dihydroartemisinin]: the tumor growth inhibition in [1] (DHA 10 mg/kg i.p.) was 14%; in assay [1] (DHA 25 mg/kg i.p.) it was 37%. Besides, the “increase in apoptosis versus control” value in assay [2] (OVCAR-3, 25 μM) was 18 fold; in [2] (OVCAR-3, 50 μM), 22 fold. Further, the “rate of apoptosis (control regarded as 100%)” value in assay [2] (OVCAR-3, 24 hrs, DHA 1 μM, CBP 500 μM, alone or combined) is on record as 266%. Also, the IC50 – broadly, the concentration at which inhibition is half-maximal – in [3] was 10.6 µM; in assay [4], 16.4 µM; in [5], 9.6 µM; in assay [6], 13.3 µM; in assay [9] it was 9.3 µM. The IC20 stood at 830 nM in assay [4]; 700 nM in [5]; 1200 nM in [6]; 3.8 µM in assay [8] (Homo sapiens); 700 nM in assay [9]. Also, the IC80 (in general, the concentration at which the effect reaches the 80% level) is 328 µM in assay [4]; 131 µM in [5]; 146 µM in [6]; above 500 µM in assay [8] (Homo sapiens); 130 µM in assay [9]. Further, in assay [7] (1 μM), the cytotoxicity at 1 µM is 24%. Besides, the cytotoxicity at 500 µM in assay [7] (500 μM) was 95%.
For `C[C@@H]1CC[C@H]2[C@@H](C)C(=O)O[C@@H]3O[C@@]4(C)CC[C@@H]1[C@]32OO4` [ART, artemisinin], in [3], the IC50 came to 10.8 µM. For the same molecule, in assay [4], the IC20 turned out to be 730 nM, the IC50 was 17.6 µM and the IC80 is 426 µM. In [5], the IC20 amounted to 700 nM, the concentration for half-maximal inhibition (IC50) was 8.9 µM and the IC80 was determined as 115 µM. In assay [6], this molecule returned an IC20 of 1300 nM, an IC50 of 14 µM and an IC80 of 145 µM. Moreover, in assay [10], the MDM2 level entry is reported as “decrease”; the “cleavage of caspase-3 and PARP” value was “dose-dependent increase”; the “level of Bax” value is “concomitant increase”; the “level of Bcl-2 protein” value is given as “dose-dependent reduction”. In addition, the p53 level result in assay [10] is reported as “dose-dependent increase”. In assay [8], the midpoint of inhibition, the IC50, lay at 60.9 µM. In assay [8] (Homo sapiens), the IC80 was above 500 µM, the IC20 came out at 3.6 µM and the IC50 was at least 60.9 µM. In addition, in assay [9], the IC20 is 900 nM, it took 9.9 µM to reach half-maximal inhibition (IC50) and the IC80 was 107 µM.
